Source: paper PMC4773869, “Influence of plasma-activated compounds on melanogenesis and tyrosinase activity” (Scientific Reports, 2016)

Experiments:
cAMP in B16F10 cells = assay: Intracellular cAMP measurement (cAMP kit); type: cell-based, murine; conditions: for cAMP level: PAED (plasma-treated compound), compared with as-synthesized compound and control; for cAMP level compared to the control: as-synthesized compound, control: media only with cells
Description: For cAMP measurement, the 4b and 6a were treated with plasma for 3, 5, and 10 min, and then added to the cells, pre-incubated with or without α-MSH (100 nM) for 24 hr. The cells were trypsinised and centrifuged to obtain the cell pellets. The cell pellet was lysed and the cAMP level was measured using a cAMP Kit (Abcam, USA) according to the manufacturer’s instructions.

[1] = test system: MITF expression in B16F10 cells; assay: Western blot, MITF expression; type: cell-based, murine; conditions: 24 hr; for expression of MITF versus control: ED (as-synthesized); for expression of MITF versus ED: PAED (plasma-treated)
Description: Melanoma cells were incubated with as-synthesized and plasma-treated 4b and 6a test compounds for 24 hr. Following incubation, treated and untreated cells were lysed in RIPA buffer (Cell Signaling Technology, USA), whole cell protein was extracted and subjected to electrophoresis in 12% SDS-PAGE, and blotted onto nitrocellulose membranes. The membrane was probed with the antibodies raised against MITF, tyrosinase and TRP1 (Abcam, USA). The bands were detected using Super Signal West Pico Chemiluminescent Substrate (Pierce, Rockford, IL, USA) and images were taken using a Vilver imaging system (Vilver, Upland, CA, USA).

[2] = test system: intracellular ROS in B16F10 cells; assay: Intracellular ROS measurement (carboxy-H2DCFDA); type: cell-based, murine; conditions: for intracellular ROS level, PAED compared to ED: plasma-treated compound versus as-synthesized compound
Description: Intracellular reactive oxygen species (ROS) were quantified using carboxy-H2DCFDA (5-(and 6)-carboxy-20,70-dichlorodihydrofluorescein diacetate), by monitoring the fluorescence intensity.
Briefly, various concentrations of as-synthesized 4b and 6a or plasma-treated 4b and 6a were incubated with cells. After 24 hr, the cells were centrifuged for 5 min at 1000 rpm and the collected cell pellet was washed with PBS and labeled with carboxy-H2DCFDA dye following 30 min of incubation at 37 °C. The samples were centrifuged again and each pellet was mixed with 500 μl PBS. The 200 μl samples were then transferred in 96-well plates (black plate, clear bottom, corning incorporated USA) and fluorescence was measured at excitation/emission: 485/528 nm using a microplate reader.

mushroom tyrosinase = mushroom tyrosinase (Agaricus bisporus, UniProt C7FF04); assay: Kinetic analysis of the inhibition of mushroom tyrosinase (Lineweaver-Burk and Dixon plots); type: biochemical; conditions: Lineweaver-Burk plot; substrate L-DOPA; as-synthesized compound
Sequence of mushroom tyrosinase (C7FF04 2-392): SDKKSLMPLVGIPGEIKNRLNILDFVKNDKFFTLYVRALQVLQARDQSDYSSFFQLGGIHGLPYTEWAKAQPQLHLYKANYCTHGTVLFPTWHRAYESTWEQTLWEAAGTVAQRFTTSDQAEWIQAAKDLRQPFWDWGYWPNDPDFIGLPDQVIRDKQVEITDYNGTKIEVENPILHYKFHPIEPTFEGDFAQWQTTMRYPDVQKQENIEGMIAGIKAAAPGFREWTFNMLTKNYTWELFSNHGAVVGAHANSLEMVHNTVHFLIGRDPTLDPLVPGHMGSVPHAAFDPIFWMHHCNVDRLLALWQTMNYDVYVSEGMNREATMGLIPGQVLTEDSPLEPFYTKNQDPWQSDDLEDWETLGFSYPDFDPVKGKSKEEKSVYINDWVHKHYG
Description: Latter, we studied the kinetic behavior of mushroom tyrosinase during the oxidation of L-DOPA with the selective ED compounds (4b and 6a). In the present investigation, the oxidation reaction of L-DOPA by mushroom tyrosinase follows the Michaelis-Menten kinetics. The inhibitory mechanism of both of the compounds was determined by using Lineweaver-Burk plot (double reciprocal plot) as well as a Dixon plot at various concentrations of substrate L-DOPA (0.0, 0.125, 0.25, 0.5, 1.0 and 2.0 mM), as shown in Fig. 4. The double-reciprocal plot of enzyme activity in the presence of compound 4b with concentration 0.0, 18.0, 36.5, 73, 146 μM and compound 6a with concentration 0.0, 6.7, 13.5, 27 μM are shown in Fig. 4(a,b), respectively. […] The Dixon plot was determined by 1/V versus inhibitor concentrations [I] at various concentrations of substrate in mM. […] Further, to determine the action of these eugenol derivatives on the structure of tyrosinase enzyme, we performed CD analysis and molecular docking studies. A series of experiments were performed to determine the inhibition kinetics using the following method. […] The formation of DOPAchrome was continuously monitored at 475 nm for 5 min at a 30 sec intervals in the microplate reader after the addition of the enzyme.

Compound | cAMP level (cAMP in B16F10 cells) | cAMP level compared to the control (cAMP in B16F10 cells) | expression of MITF versus control [1] | expression of MITF versus ED [1] | intracellular ROS, comparison between compounds ([2]; independent of plasma treatment) | intracellular ROS level, PAED compared to ED [2] | type of inhibition (mushroom tyrosinase)
C=CCc1ccc(OC(=O)COC(=O)c2ccc(O)cc2)c(OC)c1 [4b, 2-[2-methoxy-4-(prop-2-en-1-yl)phenoxy]-2-oxoethyl 4-hydroxybenzoate] | enhanced even further | increased | higher expression | more expression | higher intracellular ROS than 6a | higher intracellular ROS levels | competitive inhibitor
C=CCc1ccc(OC(=O)COC(=O)/C=C/c2ccc(O)cc2)c(OC)c1 [6a, 2-[2-methoxy-4-(prop-2-en-1-yl)phenoxy]-2-oxoethyl(2E)-3-(4-hydroxyphenyl)prop-2-enoate] | enhanced even further | increased | higher expression | more expression |  | higher intracellular ROS levels | uncompetitive inhibitor
